Reference: patent publication US8648086B2, “5,6-bicyclic heteroaryl-containing urea compounds as kinase inhibitors” (Ascepion Pharmaceuticals, Inc., priority 2009, dated 2014)

Key:
PDGFRβ = biological target: T1, PDGFRβ (Homo sapiens, UniProt P09619); assay: PDGFRβ cell-based assay (phospho-PDGFRβ ELISA, transfected CHO cells); details: compound at 100 nM, read-out: % PDGFRβ kinase activity remains
T1 construct: expressed in transfected cells; host or cells: CHO cells, pcDNA3.1 plasmid
Summary of the method: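 CHO cells transiently transfected with full-length human PDGFRβ, serum-starved overnight in DMEM, then treated 2 h with compound (0.5–500 nM) before 20% FBS stimulation. Lysates of ~5×10^5 cells analysed by sandwich ELISA for phospho- and total PDGFRβ with streptavidin-HRP chemiluminescent detection.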

c-Met = biological target: T2, c-Met (Homo sapiens, UniProt P08581); assay: c-Met cell-based assay (phospho-c-Met ELISA, A549 cells); details: compound at 100 nM
T2 construct: endogenous in cells; host or cells: A549 cells
Summary of the method: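 Serum-starved A549 cells (NSCLC) pretreated 2 h with compound (0.5 nM to 500 nM), then stimulated 20 min with 20% FBS. Lysates analysed by ELISA for phospho-c-Met and total c-Met with streptavidin-HRP chemiluminescence.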

c-Kit = biological target: T3, c-Kit (Homo sapiens, UniProt P10721); assay: KINOMEscan competition binding assay, c-Kit; details: compound at 100 nM; lower number indicates stronger hit
T3 construct: purchased KINOMEscan service (Ambit Biosciences, San Diego)
Protocol: (§1) A standard competition binding assay can be used to test the ability of a compound of this invention on competing with both intended and unintended kinases in vitro. To screen a compound against a large number of human kinases, a competition binding assay with an active-site dependent binding technology was performed by KINOMEscan service (Ambit Biosciences, San Diego, Cal., USA). Three components were combined in this assay—DNA-tagged kinase, immobilized ligand, and the test compound. The ability of the test compound to compete with the immobilized ligand was measured by quantitative PCR of the DNA of the DNA tag. A number of the compounds of this invention were screened at the concentration of 100 nM by this binding assay, and the results were reported as “% Ctrl,” and the lower number indicates stronger “hit” in this matrix.

CSF-1R = biological target: T4, CSF-1R (Homo sapiens, UniProt P07333); assay: KINOMEscan competition binding assay, CSF-1R; details: compound at 100 nM; lower number indicates stronger hit
T4 construct: purchased KINOMEscan service (Ambit Biosciences, San Diego)
Protocol: as §1

[1] = system: BEL-7404 human hepatocellular carcinoma; assay: In vivo anti-tumor efficacy, BEL-7404 xenograft; details: Liver cancer BEL-7404, nu/nu Balb/c mice, 50 mg/kg oral once per day, n = 2 × 3
Protocol: Female (nu/nu) Balb/c athymic mice at 4-6 weeks of age were injected subcutaneously (s.c.) with MDA-MB-231 human breast cancer cells, A549 human non-small cell lung cancer cells, U87-MG human glioblastoma cells, PC-3 human prostate cancer cells, HT-29 human colon cancer, BEL-7404 human hepatocellular carcinoma, or MKN-45 human gastric cancer cells (ATCC, 5×10^6 cells suspended in 100 μl DMEM medium). Treatment was initiated after the tumor mass grown from s.c. implanted tumor cells reached a median volume of 200-400 mm^3. Mice were randomized into groups with three in each group for small-sample efficacy tests such that the median tumor volume is nearly equal among all groups. […] Tumor volumes were assessed at least twice weekly by caliper measurement from the start of treatment. Tumor volume was calculated using the formula ½×L×W^2 (L: length of tumor's long axis, W: length of tumor's short axis). […]
The efficacy of compounds in reducing tumor growth was assessed by the index Tumor Growth Inhibition (TGI). TGI for a given treatment period was calculated using the group mean tumor volumes according to the formula: TGI=100×(VVehicle—group−VTreatment—group)÷VVehicle—group wherein VVehicle—group represents the mean tumor volume for the group treated with vehicle and VTreatment—group represents the mean tumor volume of the group treated with a compound.

T2 sequence (P08581 25-1390): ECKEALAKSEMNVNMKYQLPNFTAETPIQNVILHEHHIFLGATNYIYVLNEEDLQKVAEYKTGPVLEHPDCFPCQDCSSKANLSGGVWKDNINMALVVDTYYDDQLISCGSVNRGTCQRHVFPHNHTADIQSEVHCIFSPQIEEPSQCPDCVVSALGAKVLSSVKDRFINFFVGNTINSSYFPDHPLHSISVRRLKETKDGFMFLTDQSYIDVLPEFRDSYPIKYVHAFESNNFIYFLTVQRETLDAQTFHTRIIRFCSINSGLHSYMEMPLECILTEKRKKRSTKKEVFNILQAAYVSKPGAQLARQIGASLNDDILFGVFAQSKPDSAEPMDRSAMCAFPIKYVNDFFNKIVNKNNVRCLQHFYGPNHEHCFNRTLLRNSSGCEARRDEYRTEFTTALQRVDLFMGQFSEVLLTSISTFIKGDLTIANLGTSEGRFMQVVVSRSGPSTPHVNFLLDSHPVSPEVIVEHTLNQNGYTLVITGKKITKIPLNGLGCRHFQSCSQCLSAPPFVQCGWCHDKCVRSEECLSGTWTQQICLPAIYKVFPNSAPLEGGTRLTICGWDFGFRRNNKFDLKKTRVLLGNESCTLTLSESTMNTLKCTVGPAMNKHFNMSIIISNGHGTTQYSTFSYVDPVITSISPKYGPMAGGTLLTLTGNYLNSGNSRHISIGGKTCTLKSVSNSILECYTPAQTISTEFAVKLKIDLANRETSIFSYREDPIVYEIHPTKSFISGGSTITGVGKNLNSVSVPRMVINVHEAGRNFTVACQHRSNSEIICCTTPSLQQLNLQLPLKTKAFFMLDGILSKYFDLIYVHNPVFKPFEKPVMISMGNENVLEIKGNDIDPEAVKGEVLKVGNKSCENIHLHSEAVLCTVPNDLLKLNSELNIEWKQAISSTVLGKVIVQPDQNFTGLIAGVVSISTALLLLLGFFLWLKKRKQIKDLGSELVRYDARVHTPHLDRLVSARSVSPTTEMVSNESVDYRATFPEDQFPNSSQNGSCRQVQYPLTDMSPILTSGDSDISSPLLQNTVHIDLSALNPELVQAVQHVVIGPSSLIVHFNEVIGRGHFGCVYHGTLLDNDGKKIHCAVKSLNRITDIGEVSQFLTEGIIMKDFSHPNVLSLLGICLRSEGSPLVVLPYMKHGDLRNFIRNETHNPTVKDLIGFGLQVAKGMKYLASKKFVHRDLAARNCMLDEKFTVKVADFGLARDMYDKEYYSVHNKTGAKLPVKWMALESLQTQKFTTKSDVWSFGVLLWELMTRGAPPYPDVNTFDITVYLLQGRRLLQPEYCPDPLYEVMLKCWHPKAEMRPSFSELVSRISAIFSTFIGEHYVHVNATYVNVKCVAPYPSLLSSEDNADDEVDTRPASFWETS
T3 sequence (P10721 26-976): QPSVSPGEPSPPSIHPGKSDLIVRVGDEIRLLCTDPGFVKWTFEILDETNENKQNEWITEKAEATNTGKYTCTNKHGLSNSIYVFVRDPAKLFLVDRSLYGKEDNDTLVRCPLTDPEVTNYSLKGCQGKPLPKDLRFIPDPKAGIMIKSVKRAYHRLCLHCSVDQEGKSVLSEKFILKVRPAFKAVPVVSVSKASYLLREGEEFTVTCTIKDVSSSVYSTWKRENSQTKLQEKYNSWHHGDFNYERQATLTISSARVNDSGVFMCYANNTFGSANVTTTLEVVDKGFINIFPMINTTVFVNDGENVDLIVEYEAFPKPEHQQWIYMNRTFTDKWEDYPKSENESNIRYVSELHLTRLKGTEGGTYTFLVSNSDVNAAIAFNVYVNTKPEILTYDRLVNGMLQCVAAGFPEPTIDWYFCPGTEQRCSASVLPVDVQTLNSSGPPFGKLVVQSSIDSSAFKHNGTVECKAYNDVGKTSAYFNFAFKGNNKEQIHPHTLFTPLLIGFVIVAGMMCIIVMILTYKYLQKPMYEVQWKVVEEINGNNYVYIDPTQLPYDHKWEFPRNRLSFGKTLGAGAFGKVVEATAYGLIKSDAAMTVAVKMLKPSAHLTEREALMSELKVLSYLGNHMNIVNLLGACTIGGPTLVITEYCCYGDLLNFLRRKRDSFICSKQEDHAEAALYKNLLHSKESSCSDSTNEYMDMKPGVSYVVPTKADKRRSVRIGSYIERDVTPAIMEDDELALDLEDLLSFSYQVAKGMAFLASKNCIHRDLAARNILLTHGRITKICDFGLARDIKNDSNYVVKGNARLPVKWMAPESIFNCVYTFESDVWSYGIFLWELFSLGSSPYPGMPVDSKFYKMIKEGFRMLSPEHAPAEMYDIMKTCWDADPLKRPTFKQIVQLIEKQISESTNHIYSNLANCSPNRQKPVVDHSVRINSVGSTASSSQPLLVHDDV
T1 sequence (P09619 33-1106, species assumed): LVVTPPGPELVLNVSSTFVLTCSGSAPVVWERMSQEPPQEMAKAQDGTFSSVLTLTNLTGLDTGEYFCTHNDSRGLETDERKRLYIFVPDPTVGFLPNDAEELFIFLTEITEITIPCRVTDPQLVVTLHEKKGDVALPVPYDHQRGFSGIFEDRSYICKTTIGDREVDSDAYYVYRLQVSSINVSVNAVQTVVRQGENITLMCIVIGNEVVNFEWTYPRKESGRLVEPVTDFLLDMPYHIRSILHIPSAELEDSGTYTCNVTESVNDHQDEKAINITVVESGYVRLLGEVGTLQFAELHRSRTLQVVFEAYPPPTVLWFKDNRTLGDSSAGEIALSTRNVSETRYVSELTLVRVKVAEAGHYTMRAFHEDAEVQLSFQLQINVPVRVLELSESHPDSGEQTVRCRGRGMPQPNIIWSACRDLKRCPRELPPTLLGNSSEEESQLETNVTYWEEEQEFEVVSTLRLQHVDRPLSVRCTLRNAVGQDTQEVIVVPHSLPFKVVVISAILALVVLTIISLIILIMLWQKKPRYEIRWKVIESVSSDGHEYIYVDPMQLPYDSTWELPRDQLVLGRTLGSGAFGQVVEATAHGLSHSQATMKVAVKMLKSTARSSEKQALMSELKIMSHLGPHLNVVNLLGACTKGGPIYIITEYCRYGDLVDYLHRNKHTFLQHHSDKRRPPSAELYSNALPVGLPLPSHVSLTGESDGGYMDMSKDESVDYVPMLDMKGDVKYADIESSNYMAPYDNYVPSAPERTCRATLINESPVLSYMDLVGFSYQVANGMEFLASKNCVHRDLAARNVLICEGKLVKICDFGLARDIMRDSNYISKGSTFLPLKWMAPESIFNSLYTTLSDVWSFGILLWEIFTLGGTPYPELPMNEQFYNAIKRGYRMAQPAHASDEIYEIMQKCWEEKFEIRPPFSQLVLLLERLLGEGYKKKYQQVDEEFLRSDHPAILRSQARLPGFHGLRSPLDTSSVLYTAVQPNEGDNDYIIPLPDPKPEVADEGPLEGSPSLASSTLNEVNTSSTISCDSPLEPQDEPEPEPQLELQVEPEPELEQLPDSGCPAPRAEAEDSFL
T4 sequence (P07333 20-972): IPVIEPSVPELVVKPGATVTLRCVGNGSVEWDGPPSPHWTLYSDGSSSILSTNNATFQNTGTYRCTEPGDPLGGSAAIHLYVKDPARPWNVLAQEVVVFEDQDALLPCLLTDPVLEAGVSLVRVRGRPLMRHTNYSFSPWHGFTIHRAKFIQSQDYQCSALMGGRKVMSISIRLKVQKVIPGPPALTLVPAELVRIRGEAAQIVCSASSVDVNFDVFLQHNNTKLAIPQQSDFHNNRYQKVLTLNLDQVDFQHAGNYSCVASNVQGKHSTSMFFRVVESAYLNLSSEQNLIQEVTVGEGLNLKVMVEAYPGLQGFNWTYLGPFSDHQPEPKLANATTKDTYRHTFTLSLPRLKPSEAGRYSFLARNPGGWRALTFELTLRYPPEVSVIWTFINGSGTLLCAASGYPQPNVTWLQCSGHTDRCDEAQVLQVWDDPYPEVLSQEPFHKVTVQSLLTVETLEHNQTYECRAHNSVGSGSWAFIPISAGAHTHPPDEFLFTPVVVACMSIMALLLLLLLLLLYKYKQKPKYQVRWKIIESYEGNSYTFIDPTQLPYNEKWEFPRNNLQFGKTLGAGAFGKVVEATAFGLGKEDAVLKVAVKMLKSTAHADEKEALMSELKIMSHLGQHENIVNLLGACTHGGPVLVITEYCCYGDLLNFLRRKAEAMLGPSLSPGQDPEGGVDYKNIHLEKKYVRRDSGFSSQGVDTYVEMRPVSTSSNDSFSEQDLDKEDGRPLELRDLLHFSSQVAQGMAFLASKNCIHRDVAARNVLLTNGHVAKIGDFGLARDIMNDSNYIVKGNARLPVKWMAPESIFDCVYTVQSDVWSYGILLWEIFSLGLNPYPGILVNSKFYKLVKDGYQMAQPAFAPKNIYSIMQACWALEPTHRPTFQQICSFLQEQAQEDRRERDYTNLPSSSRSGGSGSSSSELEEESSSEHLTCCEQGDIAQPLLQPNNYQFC

remaining activity at 0.1 µM (PDGFRβ) | c-Kit % Ctrl (c-Kit) | CSF-1R % Ctrl (CSF-1R) | SMILES | % c-Met kinase activity remains (c-Met) | Tumor Growth Inhibition (TGI) [1]
≥ 70% |  |  | Cl.O=C(Nc1cccc(C(F)(F)F)c1)Nc1cccc2c1ccn2Cc1ccnc2[nH]ccc12 [Example 51, 1-(3-Trifluoromethylphenyl)-3-[1-(1H-pyrrolo[2,3-b]pyridin-4-ylmethyl)-1H-indol-4-yl]urea hydrochloride] | B (the percentage is greater or equal to 70%) | 
 | 3.8 % Ctrl | 3.4 % Ctrl | Cl.O=C(Nc1cc(Cl)ccc1F)Nc1cccc2c1ccn2Cc1ccnc2[nH]ccc12 [Example 56, 1-(2-Fluoro-5-chlorophenyl)-3-[1-(1H-pyrrolo[2,3-b]pyridin-4-ylmethyl)-1H-indol-4-yl]urea hydrochloride] | A (the percentage of kinase activity remains is below 70%) | A (the TGI is greater or equal to 50%)
